# Values quoted from earlier work in patent US20130316000A1, “COMPOSITIONS AND METHODS FOR TREATMENT OF IRRITABLE BOWEL SYNDROME WITH 5-AMINOSALICYLATE” (priority 2012, published 2013).
smiles,measurement,value
"Nc1ccc(O)c(C(=O)O)c1 [mesalamine, 5-aminosalicylic acid]",concentration detected in human breast milk,low concentrations
